Assay results from US20020137929A1, “1 - (3-heterocyclylphenyl) isothiourea, -isourea, -guanidine and -amidine herbicidal agents” (Intellectual Property Department, BASF Aktiengesellschaft, priority 1998, published 2002).

Experiments:
[1] = system: ECHORC (Watergrass (Calif.)); experiment: Preemergence weed control under flooded paddy conditions; format: in vivo, Echinochloa oryzoides; conditions: rated 3-4 weeks after treatment
Protocol: (§1) Results of herbicide evaluation are expressed on a rating scale (0-9). The scale is based upon a visual observation of plant stand, vigor, malformation, size, chlorosis and overall plant appearance as compared with a control.
(§2) Preemergence herbicidal activity under flooded paddy conditions is determined as follows: plant seeds or propagating organs are planted in the top 0.5 cm of silt loam soil in 32 oz. plastic containers with a diameter of 10.5 cm and no drainage holes. Water is added to these containers and maintained at 1.5 to 3 cm above the soil surface for the duration of the experiment. The test compounds are applied as aqueous/acetone mixtures 50/50 v/v pipetted directly into the flood water to give the equivalent of about 0.0313 to 0.500 kg/ha of active ingredient. The treated containers are placed on greenhouse benches and cared for in accordance with conventional greenhouse procedures. Three to four weeks after treatment, the test is terminated and each container is examined and herbicidal effect rated according to the rating system provided in Example 37. The compounds evaluated are reported by compound number given in Example 37.
(§3) Plant species employed in this example are reported by header abbreviation, common name and scientific name.

AMBEL (Ragweed, Common) [2] = experiment: Postemergence herbicidal evaluation; format: in vivo, Ambrosia artemisifolia; conditions: postemergence
Protocol: (§4) In the tests, seedling plants are grown in jiffy flats for about two weeks. The test compounds are dispersed in 50/50 acetone/water mixtures containing 0.5% TWEEN®20, a polyoxyethylene sorbitan monolaurate surfactant of Atlas Chemical Industries, in sufficient quantities to provide the equivalent of about 0.0156 kg to 0.500 kg per hectare of active compound when applied to the plants through a spray nozzle operating at 40 psi for a predetermined time. After spraying, the plants are placed on greenhouse benches and are cared for in accordance with conventional greenhouse procedures. From four to five weeks after treatment, the seedling plants are examined and rated according to the rating system set forth below. Where more than one test is involved for a given compound, the data are averaged.
(§5) Plant species employed in these evaluations are reported by header abbreviation, common name and scientific name.
as §1

ECHCG (Barnyardgrass) [3] = experiment: Preemergence herbicidal evaluation; format: in vivo, Echinochloa crus-galli; conditions: 0.2500 kg/ha, rated 4-5 weeks after treatment
Text: as §1
(§6) The preemergence herbicidal activity of the test compounds of the present invention is exemplified by the following tests in which the seeds of a variety of monocotyledonous and dicotyledonous plants are separately mixed with potting soil and planted on top of approximately one inch of soil in separate pint cups. After planting, the cups are sprayed with the selected aqueous acetone solution containing test compound in sufficient quantity to provide the equivalent of about 0.0156 to 0.500 kg per hectare of test compound per cup. The treated cups are then placed on greenhouse benches, watered and cared for in accordance with conventional greenhouse procedures. From four to five weeks after treatment, the tests are terminated and each cup is examined and rated according to the rating system provided in Example 37.
(§7) The compounds evaluated are reported by compound number given in Example 37.

CASOB (Sicklepod) [4] = experiment: Preemergence herbicidal evaluation; format: in vivo, Cassia obtusifolia; conditions: 0.2500 kg/ha, rated 4-5 weeks after treatment
Text: as §1, §6, §7

GALAP (Galium) [5] = experiment: Preemergence herbicidal evaluation; format: in vivo, Galium aparine; conditions: 0.2500 kg/ha, rated 4-5 weeks after treatment
Text: as §1, §6, §7

[6] = system: IPOHE (Morningglory, Ivyleaf); experiment: Preemergence herbicidal evaluation; format: in vivo, Ipomoea hederacea; conditions: 0.2500 kg/ha, rated 4-5 weeks after treatment
Text: as §1, §6, §7

[7] = system: CHEAL (Lambsquarters, Common); experiment: Postemergence herbicidal evaluation; format: in vivo, Chenopodium album; conditions: postemergence
Protocol: as §4, §5, §1

ZEAMX (Corn, Field) [8] = experiment: Preemergence herbicidal evaluation; format: in vivo, Zea mays; conditions: 0.2500 kg/ha, rated 4-5 weeks after treatment
Text: as §1, §6, §7

SETVI (Foxtail, Green) [9] = experiment: Preemergence herbicidal evaluation; format: in vivo, Setaria viridis; conditions: 0.2500 kg/ha, rated 4-5 weeks after treatment
Text: as §1, §6, §7

ZEAMX (Corn, Field) [10] = experiment: Postemergence herbicidal evaluation; format: in vivo, Zea mays; conditions: postemergence
Protocol: as §4, §5, §1

[11] = system: TRZAWR (Wheat, Winter, cv Riband); experiment: Postemergence herbicidal evaluation; format: in vivo, Triticum aestivum; conditions: postemergence
Protocol: as §4, §5, §1

ECHCG (Barnyardgrass) [12] = experiment: Postemergence herbicidal evaluation; format: in vivo, Echinochloa crus-galli; conditions: postemergence
Protocol: as §4, §5, §1

ORYSAT (Rice, Tebonnet) [13] = experiment: Postemergence herbicidal evaluation; format: in vivo, Oryza sativa, (L.) Tebonnet; conditions: postemergence
Protocol: as §4, §5, §1

[14] = system: IPOHE (Morningglory, Ivyleaf); experiment: Postemergence herbicidal evaluation; format: in vivo, Ipomoea hederacea; conditions: postemergence
Protocol: as §4, §5, §1

[15] = system: SAGPY (Arrowhead (Pygmaea)); experiment: Preemergence weed control under flooded paddy conditions; format: in vivo, Sagittaria pygmaea; conditions: rated 3-4 weeks after treatment
Protocol: as §1, §2, §3

[16] = system: TRZAWR (Wheat, Winter, cv Riband); experiment: Preemergence herbicidal evaluation; format: in vivo, Triticum aestivum; conditions: 0.2500 kg/ha, rated 4-5 weeks after treatment
Text: as §1, §6, §7

MOOVA (Monochoria) = experiment: Preemergence weed control under flooded paddy conditions; format: in vivo, Monochoria vaginalis; conditions: rated 3-4 weeks after treatment
Protocol: as §1, §2, §3

[17] = system: GLXMAW (Soybean, Williams); experiment: Postemergence herbicidal evaluation; format: in vivo, Glycine max, (L.) Merr. cv Williams; conditions: postemergence
Protocol: as §4, §5, §1

CYPSE (Flatsedge) = experiment: Preemergence weed control under flooded paddy conditions; format: in vivo, Cyperus serotinus; conditions: rated 3-4 weeks after treatment
Protocol: as §1, §2, §3

ABUTH (Velvetleaf) [18] = experiment: Preemergence herbicidal evaluation; format: in vivo, Abutilon theophrasti; conditions: 0.2500 kg/ha, rated 4-5 weeks after treatment
Text: as §1, §6, §7

ABUTH (Velvetleaf) [19] = experiment: Postemergence herbicidal evaluation; format: in vivo, Abutilon theophrasti; conditions: postemergence
Protocol: as §4, §5, §1

AMBEL (Ragweed, Common) [20] = experiment: Preemergence herbicidal evaluation; format: in vivo, Ambrosia artemisifolia; conditions: 0.2500 kg/ha, rated 4-5 weeks after treatment
Text: as §1, §6, §7

GALAP (Galium) [21] = experiment: Postemergence herbicidal evaluation; format: in vivo, Galium aparine; conditions: postemergence
Protocol: as §4, §5, §1

[22] = system: CHEAL (Lambsquarters, Common); experiment: Preemergence herbicidal evaluation; format: in vivo, Chenopodium album; conditions: 0.2500 kg/ha, rated 4-5 weeks after treatment
Text: as §1, §6, §7

ORYSAT (Rice, Tebonnet) [23] = experiment: Preemergence herbicidal evaluation; format: in vivo, Oryza sativa, (L.) Tebonnet; conditions: 0.2500 kg/ha, rated 4-5 weeks after treatment
Text: as §1, §6, §7

CASOB (Sicklepod) [24] = experiment: Postemergence herbicidal evaluation; format: in vivo, Cassia obtusifolia; conditions: postemergence
Protocol: as §4, §5, §1

CYPIR (Rice Flatsedge) = experiment: Preemergence weed control under flooded paddy conditions; format: in vivo, Cyperus iria; conditions: rated 3-4 weeks after treatment
Protocol: as §1, §2, §3

SETVI (Foxtail, Green) [25] = experiment: Postemergence herbicidal evaluation; format: in vivo, Setaria viridis; conditions: postemergence
Protocol: as §4, §5, §1

[26] = system: GLXMAW (Soybean, Williams); experiment: Preemergence herbicidal evaluation; format: in vivo, Glycine max, (L.) Merr. cv Williams; conditions: 0.2500 kg/ha, rated 4-5 weeks after treatment
Text: as §1, §6, §7

CCOC(=O)CN1C(=O)CSC1=Nc1cc(N2C(=O)CC(C(F)(F)F)CC2=O)c(F)cc1Cl [Compound 169, Ethyl 2-{{2-chloro-5-[2,6-dioxo-4-(trifluoromethyl)piperidino]-4-fluorophenyl}imino}-4-oxo-3-thiazolidineacetate]
herbicidal effect rating, ECHORC ([1]; 0.0313 kg/ha): 0.0
herbicidal effect rating, ECHORC ([1]; 0.0625 kg/ha): 0.0
herbicidal effect rating, ECHORC ([1]; 0.1250 kg/ha): 0.0
herbicidal effect rating, ECHORC ([1]; 0.2500 kg/ha): 2.0
herbicidal rating AMBEL (AMBEL (Ragweed, Common) [2]; rate 0.0156 kg/ha): 9.0
herbicidal rating AMBEL (AMBEL (Ragweed, Common) [2]; rate 0.0313 kg/ha): 9.0
herbicidal rating AMBEL (AMBEL (Ragweed, Common) [2]; rate 0.0625 kg/ha): 9.0
Preemergence herbicidal rating ECHCG (ECHCG (Barnyardgrass) [3]): 0.0
Preemergence herbicidal rating CASOB (CASOB (Sicklepod) [4]): 0.0
Preemergence herbicidal rating GALAP (GALAP (Galium) [5]): 0.0
Preemergence herbicidal rating IPOHE [6]: 3.0
herbicidal rating CHEAL ([7]; rate 0.0156 kg/ha): 0.0
herbicidal rating CHEAL ([7]; rate 0.0313 kg/ha): 3.0
herbicidal rating CHEAL ([7]; rate 0.0625 kg/ha): 4.0
Preemergence herbicidal rating ZEAMX (ZEAMX (Corn, Field) [8]): 0.0
Preemergence herbicidal rating SETVI (SETVI (Foxtail, Green) [9]): 0.0
herbicidal rating ZEAMX (ZEAMX (Corn, Field) [10]; rate 0.0156 kg/ha): 6.0
herbicidal rating ZEAMX (ZEAMX (Corn, Field) [10]; rate 0.0313 kg/ha): 7.5
herbicidal rating ZEAMX (ZEAMX (Corn, Field) [10]; rate 0.0625 kg/ha): 8.5
herbicidal rating TRZAWR ([11]; rate 0.0156 kg/ha): 4.5
herbicidal rating TRZAWR ([11]; rate 0.0313 kg/ha): 6.0
herbicidal rating TRZAWR ([11]; rate 0.0625 kg/ha): 7.0
herbicidal rating ECHCG (ECHCG (Barnyardgrass) [12]; rate 0.0156 kg/ha): 2.0
herbicidal rating ECHCG (ECHCG (Barnyardgrass) [12]; rate 0.0313 kg/ha): 4.0
herbicidal rating ECHCG (ECHCG (Barnyardgrass) [12]; rate 0.0625 kg/ha): 7.0
herbicidal rating ORYSAT (ORYSAT (Rice, Tebonnet) [13]; rate 0.0156 kg/ha): 0.5
herbicidal rating ORYSAT (ORYSAT (Rice, Tebonnet) [13]; rate 0.0313 kg/ha): 1.0
herbicidal rating ORYSAT (ORYSAT (Rice, Tebonnet) [13]; rate 0.0625 kg/ha): 2.0
herbicidal rating IPOHE ([14]; rate 0.0156 kg/ha): 9.0
herbicidal rating IPOHE ([14]; rate 0.0313 kg/ha): 9.0
herbicidal rating IPOHE ([14]; rate 0.0625 kg/ha): 9.0
herbicidal effect rating, SAGPY ([15]; 0.0313 kg/ha): 0.0
herbicidal effect rating, SAGPY ([15]; 0.0625 kg/ha): 0.0
herbicidal effect rating, SAGPY ([15]; 0.1250 kg/ha): 0.0
herbicidal effect rating, SAGPY ([15]; 0.2500 kg/ha): 3.0
Preemergence herbicidal rating TRZAWR [16]: 0.0
herbicidal effect rating, MOOVA (MOOVA (Monochoria); 0.0313 kg/ha): 5.0
herbicidal effect rating, MOOVA (MOOVA (Monochoria); 0.0625 kg/ha): 6.0
herbicidal effect rating, MOOVA (MOOVA (Monochoria); 0.1250 kg/ha): 6.0
herbicidal effect rating, MOOVA (MOOVA (Monochoria); 0.2500 kg/ha): 7.0
herbicidal rating GLXMAW ([17]; rate 0.0156 kg/ha): 5.0
herbicidal rating GLXMAW ([17]; rate 0.0313 kg/ha): 6.5
herbicidal rating GLXMAW ([17]; rate 0.0625 kg/ha): 7.5
herbicidal effect rating, CYPSE (CYPSE (Flatsedge); 0.0313 kg/ha): 0.0
herbicidal effect rating, CYPSE (CYPSE (Flatsedge); 0.1250 kg/ha): 0.0
Preemergence herbicidal rating ABUTH (ABUTH (Velvetleaf) [18]): 5.0
herbicidal rating ABUTH (ABUTH (Velvetleaf) [19]; rate 0.0156 kg/ha): 9.0
herbicidal rating ABUTH (ABUTH (Velvetleaf) [19]; rate 0.0313 kg/ha): 9.0
herbicidal rating ABUTH (ABUTH (Velvetleaf) [19]; rate 0.0625 kg/ha): 9.0
Preemergence herbicidal rating AMBEL (AMBEL (Ragweed, Common) [20]): 3.0
herbicidal rating GALAP (GALAP (Galium) [21]; rate 0.0156 kg/ha): 0.0
herbicidal rating GALAP (GALAP (Galium) [21]; rate 0.0313 kg/ha): 0.0
herbicidal rating GALAP (GALAP (Galium) [21]; rate 0.0625 kg/ha): 0.0
Preemergence herbicidal rating CHEAL [22]: 4.0
Preemergence herbicidal rating ORYSAT (ORYSAT (Rice, Tebonnet) [23]): 0.0
herbicidal rating CASOB (CASOB (Sicklepod) [24]; rate 0.0156 kg/ha): 0.0
herbicidal rating CASOB (CASOB (Sicklepod) [24]; rate 0.0313 kg/ha): 1.0
herbicidal rating CASOB (CASOB (Sicklepod) [24]; rate 0.0625 kg/ha): 3.0
herbicidal effect rating, CYPIR (CYPIR (Rice Flatsedge); 0.0313 kg/ha): 0.0
herbicidal effect rating, CYPIR (CYPIR (Rice Flatsedge); 0.0625 kg/ha): 0.0
herbicidal effect rating, CYPIR (CYPIR (Rice Flatsedge); 0.1250 kg/ha): 0.0
herbicidal effect rating, CYPIR (CYPIR (Rice Flatsedge); 0.2500 kg/ha): 2.0
herbicidal rating SETVI (SETVI (Foxtail, Green) [25]; rate 0.0156 kg/ha): 0.0
herbicidal rating SETVI (SETVI (Foxtail, Green) [25]; rate 0.0313 kg/ha): 5.0
herbicidal rating SETVI (SETVI (Foxtail, Green) [25]; rate 0.0625 kg/ha): 9.0
Preemergence herbicidal rating GLXMAW [26]: 3.0
